test system: dispersed rat anterior pituitary cells (release of rat growth hormone); test: In Vitro (Cell Dispersion) Assay of GRF: growth hormone release measured by RIA; format: cell-based, rat (Sprague-Dawley); details: growth hormone release from cultured rat pituitary cells, 4 hours of incubation, peptide 0.8 to 200 fmol per ml; compared with natural GRF(1-44)-NH2 (= 1.0)
Description: In Vitro (Cell Dispersion) Assay of GRF
Pituitaries from 30-40 male Sprague-Dawley rats (175 g) were removed aseptically after decapitation. The anterior lobes were collected, washed 3 times in sterile Hepes buffer (0.025 M) (pH 7.35) and dispersed at 37° in 20-30 ml Hepes buffer (pH 7.35) containing collagenase (4 mg per ml) and Dispase (Protease grade II, 2 mg per ml). After gentle 100-110 min vortexing and trituration by Pasteur pipette, the dispersed cells were separated by centrifugation (150×g, 4 min) and re-suspended in Hepes buffer containing neuraminidase ([…]), and 200 µg/ml ethylenediaminetetraacetic acid (EDTA) disodium salt, pH 7.35, for 10 min.
The cells were washed twice with plating medium and plated on multiwell-plates (1.5×10^5 cells per ml) using the following defined medium: F-12/DMEM/BGJ (6:3:1) (Gibco: 430-1700/430-1600/320-2591) with 2 g BSA/1., 2.38 g Hepes/1.50 mg PSN antibiotic mixture (Gibco Laboratories), 10 mg/l transferring (Sigma T2252) with 1.83 g NaHCO3 /l (Baker 3506). The medium in each well was supplemented either with a sample of the novel GRF peptide or natural GRF(1-44)-NH2 at concentrations ranging from 0.8 to 200 fmol per ml of medium. Control wells contained no supplement. Plating was done with this medium added with 2% fetal calf serum to ensure rapid fixation of the cells.
On the fourth day, the cells were washed twice with the defined medium without fetal calf serum. Finally, 900 μl of defined medium was added to each well plus 100 μl of the same medium containing each individual treatment, in triplicate. After 4 hours of incubation the medium was collected and diluted as required to conduct radioimmunoassay (RIAs) for rat growth hormone.
RIAs for rat growth hormone were conducted using Sinha's anti-murine GH immune serum and procedures according to the National Pituitary Agency using protein A to precipitate antibody antigen complex.

Molecule	RELATIVE POTENCY
CC[C@H](C)[C@H](NC(=O)[C@H](C)NC(=O)[C@H](CC(=O)O)NC(=O)[C@H](C)NC(=O)[C@@H](N)Cc1ccc(O)cc1)C(=O)N[C@@H](Cc1ccccc1)C(=O)N[C@H](C(=O)N[C@@H](CC(N)=O)C(=O)N[C@@H](CO)C(=O)N[C@@H](Cc1ccc(O)cc1)C(=O)N[C@@H](CCCNC(=N)N)C(=O)N[C@@H](CCCCN)C(=O)N[C@H](C(=O)N[C@@H](CC(C)C)C(=O)NCC(=O)N[C@@H](CCC(N)=O)C(=O)N[C@@H](CC(C)C)C(=O)N[C@@H](CO)C(=O)N[C@@H](C)C(=O)N[C@@H](CCCNC(=N)N)C(=O)N[C@@H](CCCCN)C(=O)N[C@@H](CC(C)C)C(=O)N[C@@H](CC(C)C)C(=O)N[C@@H](CCC(N)=O)C(=O)N[C@@H](CC(=O)O)C(=O)N[C@H](C(=O)N[C@@H](CCSC)C(=O)N[C@@H](CO)C(=O)N[C@@H](CCCNC(=N)N)C(=O)N[C@@H](CCC(N)=O)C(=O)N[C@@H](CCC(N)=O)C(=O)NCC(=O)N[C@@H](CCC(=O)O)C(=O)N[C@@H](CO)C(=O)N[C@@H](CC(N)=O)C(=O)N[C@@H](CCC(N)=O)C(=O)N[C@@H](CCC(=O)O)C(=O)N[C@@H](CCCNC(=N)N)C(=O)NCC(=O)N[C@@H](C)C(=O)N[C@@H](CCCNC(=N)N)C(=O)N[C@@H](C)C(=O)N[C@@H](CCCNC(=N)N)C(=O)N[C@@H](CC(C)C)C(N)=O)[C@@H](C)CC)C(C)C)[C@@H](C)O [GRF(1-44)--NH2, GRF(1-44)-NH2, reference compound]	1.0
Cyclo^8,12;21,25 [Asp^8, Ala^15 ]-GRF(1-29)-NH2	2.24
Cyclo^8,12;21,25 [N-MethylTyr^1,D-Ala^2, Asp^8, Ala^15 ]-GRF(1-29)-NH2	0.61
Cyclo^21,21 [N-MethylTyr^1, D-Ala^2, Ala^15 ]-GRF(1-29)-NH2	1.92
Cyclo^21,25 [Ala^15 ]-GRF(1-29)-NH2 [Cyclo^21,25 --[Ala^15]--GRF(1-29)--NH2]	1.27
Cyclo^21,25 [D-Ala^2, Ala^15 ]-GRF(1-29)-NH2	1.99
Cyclo^21,25 [desNH2 Tyr^1,Ala^15 ]-GRF(1-29)-NH2	1.47
